In ChEMBL document CHEMBL1133626, “GRid-INdependent descriptors (GRIND): a novel class of alignment-independent three-dimensional molecular descriptors” (J Med Chem, 2000):

Legend:
[1] = target: T1, Corticosteroid-binding globulin (Homo sapiens) (UniProt P08185); experiment: (§1) Binding affinity to the corticosteroid-binding globulin (CBG) receptor.
T1 sequence (whole entry): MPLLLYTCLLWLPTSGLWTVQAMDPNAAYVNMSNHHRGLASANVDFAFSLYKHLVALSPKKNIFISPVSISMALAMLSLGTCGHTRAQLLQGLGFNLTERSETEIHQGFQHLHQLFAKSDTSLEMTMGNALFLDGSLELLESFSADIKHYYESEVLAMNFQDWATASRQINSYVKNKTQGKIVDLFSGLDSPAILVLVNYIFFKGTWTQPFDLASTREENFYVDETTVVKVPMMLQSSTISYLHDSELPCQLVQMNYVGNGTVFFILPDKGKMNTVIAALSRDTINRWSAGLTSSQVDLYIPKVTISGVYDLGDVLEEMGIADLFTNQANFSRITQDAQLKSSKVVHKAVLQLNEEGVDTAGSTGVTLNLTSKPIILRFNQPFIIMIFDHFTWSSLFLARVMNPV

[2] = Kinetic inhibition constant was evaluated by measuring the inhibition of the glycogen phosphorylase (GP)
[3] = Binding affinity of the Corticosteroid-Binding Globulin Receptor with deoxy-corticosterone
[4] = as §1
[5] = target: 5-hydroxytryptamine receptor 2A (Rattus norvegicus, UniProt P14842); experiment: Kinetic inhibition constant evaluated by measuring serotonergic activity
Chain of 5-hydroxytryptamine receptor 2A (P14842 whole entry): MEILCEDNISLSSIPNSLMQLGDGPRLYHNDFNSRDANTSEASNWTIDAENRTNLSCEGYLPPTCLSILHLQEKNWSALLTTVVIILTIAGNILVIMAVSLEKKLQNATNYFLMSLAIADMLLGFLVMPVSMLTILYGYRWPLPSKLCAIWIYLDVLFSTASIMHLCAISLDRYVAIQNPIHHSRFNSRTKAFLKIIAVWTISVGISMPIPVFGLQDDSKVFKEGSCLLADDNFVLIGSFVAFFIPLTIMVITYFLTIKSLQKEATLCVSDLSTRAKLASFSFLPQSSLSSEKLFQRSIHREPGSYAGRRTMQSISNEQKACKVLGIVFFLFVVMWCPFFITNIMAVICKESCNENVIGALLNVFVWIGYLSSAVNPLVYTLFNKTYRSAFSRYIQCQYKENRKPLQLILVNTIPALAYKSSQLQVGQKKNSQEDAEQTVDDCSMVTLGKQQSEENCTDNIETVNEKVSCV

[6] = Binding affinity of the Corticosteroid-Binding Globulin Receptor with androstenedione
[7] = Binding affinity of the Corticosteroid-Binding Globulin Receptor with corticosterone
[8] = Binding affinity of the Corticosteroid-Binding Globulin Receptor with androstanediol
[9] = Binding affinity of the Corticosteroid-Binding Globulin Receptor with dehydroepiandrosterone
[10] = Binding affinity of the Corticosteroid-Binding Globulin Receptor with cortisol
[11] = target: T1, Corticosteroid-binding globulin (Homo sapiens)
[12] = Binding affinity of the Corticosteroid-Binding Globulin Receptor with androstenediol
[13] = Binding affinity of the Corticosteroid-Binding Globulin Receptor with androsterone

Structure (SMILES): CC(=O)[C@H]1CC[C@H]2[C@@H]3CCC4=CC(=O)CC[C@]4(C)[C@H]3C(=O)C[C@]12C
- Log K [1]: 6.78

Structure (SMILES): C[C@]12CCC(=O)C=C1CC[C@@H]1[C@@H]2[C@@H](O)C[C@@]2(C)[C@H]1CC[C@]2(O)C(=O)CO
- Log K [1]: 7.88

Structure (SMILES): C[C@]12CC[C@@H]3c4ccc(O)cc4CC[C@H]3[C@@H]1CC[C@@H]2O
- Log K [1]: 5

Structure (SMILES): CC(=O)C1[C@H](C)CC2C3CC=C4CC(=O)CCC4(C)C3CCC21C (some centres undefined)
- Log K [1]: 6.25

Structure (SMILES): O=C1CNC(=O)[C@@]2(N1)O[C@@H](CO)[C@@H](O)[C@H](O)[C@@H]2O
- pKi [2]: 4.22
- Log K [3]: 7.65

Structure (SMILES): CC(=O)[C@@]1(O)CC[C@H]2[C@@H]3CC[C@@H]4C[C@H](O)CC[C@]4(C)[C@H]3CC[C@@]21C
- Log K [1]: 5

Structure (SMILES): C[C@]12C=CC(=O)C=C1CC[C@@H]1[C@@H]2[C@@H](O)C[C@@]2(C)[C@H]1CC[C@]2(O)C(=O)CO
- Log K [4]: 6.72

Structure (SMILES): C[C@]12CC[C@H]3[C@@H](CCC4=CC(=O)CC[C@@]43C)[C@@H]1CC[C@@H]2C(=O)CO
- Log K [1]: 7.65

Structure (SMILES): C[C@]12CC[C@H](O)CC1=CC[C@@H]1[C@@H]2CC[C@]2(C)C(=O)CC[C@@H]12
- Log K [1]: 5

Structure (SMILES): O=C(c1ccc(F)cc1)C1CCN(CCC2CC3=CC=CC3C2=O)CC1 (centres undefined)
- Ki [5]: 7.08 nM

Structure (SMILES): C[C@]12CC[C@H]3[C@@H](CCC4=CC(=O)CC[C@@]43C)[C@@H]1CC[C@@H]2O
- Log K [1]: 6.72

Structure (SMILES): C[C@@H]1C[C@@]2(C)C(=CC1=O)CC[C@H]1[C@@H]3CC[C@](O)(C(=O)CO)[C@@]3(C)C[C@H](O)[C@@]12F
- Log K [1]: 5.8

Structure (SMILES): CC(=O)OCC(=O)[C@@]1(O)CC[C@H]2[C@@H]3CCC4=CC(=O)CC[C@]4(C)[C@H]3[C@@H](O)C[C@@]21C
- Log K [1]: 7.55

Structure (SMILES): C[C@]12CCC(=O)C=C1CC[C@@H]1[C@@H]2CC[C@]2(C)C(=O)CC[C@@H]12
- Log K [1]: 5.76

Structure (SMILES): C[C@]12CCC(=O)C=C1CC[C@@H]1[C@@H]2CC[C@@]2(C)[C@H]1CC[C@]2(O)C(=O)CO
- Log K [4]: 7.88

Structure (SMILES): C[C@]12CC[C@H](O)C[C@@H]1CC[C@@H]1[C@@H]2CC[C@]2(C)[C@@H](O)CC[C@@H]12
- Log K [1]: 5

Structure (SMILES): CC(=O)[C@H]1CC[C@H]2[C@@H]3CCC4=CC(=O)CC[C@@H]4[C@H]3CC[C@]12C
- Log K [1]: 7.12

Structure (SMILES): CC(=O)[C@H]1CC[C@H]2[C@@H]3CC=C4C[C@@H](O)CC[C@]4(C)[C@H]3CC[C@]12C
- Log K [1]: 5.25

Structure (SMILES): CC(=O)[C@@]1(O)[C@H](O)C[C@H]2[C@@H]3CC=C4CC(=O)CC[C@]4(C)[C@H]3CC[C@@]21C
- Log K [1]: 6.14

Structure (SMILES): COC(=O)C1OC(CO)C(O)C(O)C1O (centres undefined)
- Log K [6]: 5.76
- pKi [2]: 2.55

Structure (SMILES): NC(=O)N[C@H]1O[C@H](CO)[C@@H](O)[C@H](O)[C@H]1O
- Log K [7]: 7.88
- pKi [2]: 3.85

Structure (SMILES): C[C@]12CC[C@@H]3c4ccc(O)cc4CC[C@H]3[C@@H]1C[C@@H](O)[C@@H]2O
- Log K [1]: 5

Structure (SMILES): NC(=O)C1OC(CO)C(O)C(O)C1O (stereo in doubt; 2)
- Log K [8]: 5
- pKi [2]: 3.43

Structure (SMILES): NN1C(=O)N[C@@]2(O[C@@H](CO)[C@@H](O)[C@H](O)[C@@H]2O)C1=O
- Log K [9]: 5
- pKi [2]: 3.84

Structure (SMILES): C[C@]12CC[C@H]3[C@@H](CCC4=CC(=O)CC[C@@H]43)[C@@H]1CC[C@@H]2O
- Log K [1]: 7.2

Structure (SMILES): C[C@]12C[C@H](O)[C@H]3[C@@H](CCC4=CC(=O)CC[C@@]43C)[C@@H]1CC[C@@H]2C(=O)CO
- Log K [1]: 7.88

Structure (SMILES): COC(=O)N[C@]1(C(N)=O)O[C@H](CO)[C@@H](O)[C@H](O)[C@H]1O
- Log K [10]: 7.88
- pKi [2]: 4.8

Structure (SMILES): O=C1C(CCN2CCC(c3noc4cc(F)ccc34)CC2)CC2=CC=CC12 (centres undefined)
- Ki [5]: 1.74 nM

Structure (SMILES): C[C@]12CCC(=O)C=C1CC[C@@H]1[C@@H]2[C@@H](O)C[C@]2(C=O)[C@@H](C(=O)CO)CC[C@@H]12
- Log K [4]: 6.28

Structure (SMILES): CC(=O)[C@H]1CC[C@H]2[C@@H]3CCC4=CC(=O)CC[C@]4(C)[C@H]3CC[C@]12C
- Log Ki [11]: 7.38 mM

Structure (SMILES): NC(=O)C1OC(CO)C(O)C(O)C1O (stereo in doubt; 3)
- Log K [12]: 5
- pKi [2]: 3.36

Structure (SMILES): O=C(CCCN1CCN(CCC2CC3=CC=CC3C2=O)CC1)c1ccc(F)cc1 (centres undefined)
- Ki [5]: 42.7 nM

Structure (SMILES): C[C@]12CCC(=O)C=C1CC[C@@H]1[C@@H]2C(=O)C[C@@]2(C)[C@H]1CC[C@]2(O)C(=O)CO
- Log K [1]: 6.89

Structure (SMILES): C[C@]12C[C@@H](O)[C@H]3[C@@H](CCC4=CC(=O)CC[C@@]43C)[C@@H]1CC[C@@H]2C(=O)CO
- Log K [4]: 6.78

Structure (SMILES): CC(=O)[C@@]1(O)CC[C@H]2[C@@H]3CCC4=CC(=O)CC[C@]4(C)[C@H]3CC[C@@]21C
- Log K [1]: 7.74

Structure (SMILES): N#CC[C@@H]1O[C@H](CO)[C@@H](O)[C@H](O)[C@H]1O
- Log K [13]: 5.61
- pKi [2]: 2.05
